Data: ChEMBL document CHEMBL4483862, “Open-source discovery of chemical leads for next-generation chemoprotective antimalarials” (2018)

System: Plasmodium berghei
Test: Luciferase/luciferin-expressing antifolate-resistant parasites were used to infect a culture of HepG2 cells that were pre-incubated with compounds. Infected hepatocytes emit light due to the luciferase reaction. Assay results are presented as the percent inhibition of light emission compared to control. […]
Format: functional
Conditions: sporozoite; for IC90: read-out: LUCIFERASE INFECTION ASSAY - IC90

CC[n+]1ccccc1C=Cc1ccc(N(C)C)cc1
IC50 (HEPG2TOX_HILL_SLOPE 3.25, HEPG2TOX_R_SQUARED 0.92, PBLUC_HILL_SLOPE 1.1, PBLUC_R_SQUARED 0.874, read-out: LUCIFERASE INFECTION ASSAY - IC50): 0.835 µM
IC90: 6.2 µM

Cc1sc2nc(CSc3ccc([N+](=O)[O-])c(C(F)(F)F)c3)nc(O)c2c1C
IC50 (HEPG2TOX_HILL_SLOPE 3.24, HEPG2TOX_R_SQUARED 0.988, PBLUC_HILL_SLOPE 5.99, PBLUC_R_SQUARED 0.334, read-out: LUCIFERASE INFECTION ASSAY - IC50): 5.99 µM
IC90: 8.65 µM

Oc1cccc(-c2cnc3ccc(-c4cccc5ncccc45)nn23)c1
IC50 (HEPG2TOX_HILL_SLOPE 3.26, HEPG2TOX_R_SQUARED 0.941, PBLUC_HILL_SLOPE 1.24, PBLUC_R_SQUARED 0.528, read-out: LUCIFERASE INFECTION ASSAY - IC50): 1.84 µM
IC90: > 10 µM

COc1ccc(OC)c(CCNc2nc3cnc(-c4cccs4)cc3n2C)c1
IC50 (HEPG2TOX_HILL_SLOPE 3.25, HEPG2TOX_R_SQUARED 0.886, PBLUC_HILL_SLOPE 11.1, PBLUC_R_SQUARED 0.592, read-out: LUCIFERASE INFECTION ASSAY - IC50): 3.16 µM
IC90: 3.85 µM

CCCn1c(C)cc(C(=O)CN(C)S(=O)(=O)c2ccc(Cl)cc2)c1C
IC50 (HEPG2TOX_HILL_SLOPE 3.32, HEPG2TOX_R_SQUARED 0.751, PBLUC_HILL_SLOPE 15.5, PBLUC_R_SQUARED 0.301, read-out: LUCIFERASE INFECTION ASSAY - IC50): 9.26 µM
IC90: > 10 µM

Cc1cc(C)c(-c2csc(NC(=O)C3CC4CCCC(C3)C4=O)n2)c(C)c1 (configuration not stated)
IC50 (HEPG2TOX_HILL_SLOPE 3.24, HEPG2TOX_R_SQUARED 0.936, PBLUC_HILL_SLOPE 1.48, PBLUC_R_SQUARED 0.583, read-out: LUCIFERASE INFECTION ASSAY - IC50): 2.93 µM
IC90: > 10 µM

Fc1ccc(Oc2ccc(CNc3ncnc4nc[nH]c34)cn2)cc1
IC50 (HEPG2TOX_HILL_SLOPE 3.2, HEPG2TOX_R_SQUARED 0.895, PBLUC_HILL_SLOPE 3.02, PBLUC_R_SQUARED 0.0659, read-out: LUCIFERASE INFECTION ASSAY - IC50): 5.84 µM
IC90: > 10 µM

CC(C)Oc1cccc(Nc2ncc(C(=O)c3cccc(-c4ccncc4)c3)[nH]2)c1
IC50 (HEPG2TOX_HILL_SLOPE 3.28, HEPG2TOX_R_SQUARED 0.825, PBLUC_HILL_SLOPE 4.08, PBLUC_R_SQUARED 0.607, read-out: LUCIFERASE INFECTION ASSAY - IC50): 2.27 µM
IC90: 3.9 µM

O=C(Nc1cccc(Cl)c1)C1=COC2=NC(=O)N(Cc3cccc(Cl)c3)CCN12
IC50 (HEPG2TOX_HILL_SLOPE 3.25, HEPG2TOX_R_SQUARED 0.784, PBLUC_HILL_SLOPE 3.78, PBLUC_R_SQUARED 0.178, read-out: LUCIFERASE INFECTION ASSAY - IC50): 6.88 µM
IC90: > 10 µM

CCCCCCCCCCOCC[N+]1(C)CCOCC1
IC50 (HEPG2TOX_HILL_SLOPE 3.29, HEPG2TOX_R_SQUARED 0.591, PBLUC_HILL_SLOPE 1.92, PBLUC_R_SQUARED 0.78, read-out: LUCIFERASE INFECTION ASSAY - IC50): 2.38 µM
IC90: 7.47 µM

Cc1ccccc1OCCN(C)C(=O)NCCc1cccs1
IC50 (HEPG2TOX_HILL_SLOPE 3.22, HEPG2TOX_R_SQUARED 0.951, PBLUC_HILL_SLOPE 11.1, PBLUC_R_SQUARED 0.17, read-out: LUCIFERASE INFECTION ASSAY - IC50): 3.35 µM
IC90: 4.09 µM

O=C(Nc1nc2ccccn2c1C(=O)NC1CCCC1)c1ccccc1
IC50 (HEPG2TOX_HILL_SLOPE 3.22, HEPG2TOX_R_SQUARED 0.898, PBLUC_HILL_SLOPE 4.41, PBLUC_R_SQUARED 0.561, read-out: LUCIFERASE INFECTION ASSAY - IC50): 4.56 µM
IC90: 7.5 µM

Cn1ncc2c(N3CCN(CC(=O)Nc4nc(-c5c[nH]c6ccccc56)cs4)CC3)ncnc21
IC50 (HEPG2TOX_HILL_SLOPE 3.32, HEPG2TOX_R_SQUARED 0.453, PBLUC_HILL_SLOPE 2.65, 8.86, PBLUC_R_SQUARED 0.123, 0.280, read-out: LUCIFERASE INFECTION ASSAY - IC50): 2.62 µM
IC90: 4.22 µM

COc1ccc(NCC2(c3ccnc(-c4ccccc4Cl)c3)CC2)cc1OC
IC50 (HEPG2TOX_HILL_SLOPE 3.27, HEPG2TOX_R_SQUARED 0.816, PBLUC_HILL_SLOPE 4.33, PBLUC_R_SQUARED 0.443, read-out: LUCIFERASE INFECTION ASSAY - IC50): 5.49 µM
IC90: 9.12 µM

c1ccc(-c2csc3nc(CN4CCCCC4)nc(Sc4nnc(-c5cccnc5)o4)c23)cc1
IC50 (HEPG2TOX_HILL_SLOPE 3.21, 5.75, HEPG2TOX_R_SQUARED 0.957, 0.718, PBLUC_HILL_SLOPE 33.6, 11.3, PBLUC_R_SQUARED 0.628, 0.512, read-out: LUCIFERASE INFECTION ASSAY - IC50): 3.23 µM
IC90: 3.67 µM

O=C(CCn1cnc2ccccc2c1=O)Nc1ccc(Br)cn1
IC50 (HEPG2TOX_HILL_SLOPE 3.2, HEPG2TOX_R_SQUARED 0.878, PBLUC_HILL_SLOPE 4.82, PBLUC_R_SQUARED 0.722, read-out: LUCIFERASE INFECTION ASSAY - IC50): 3.02 µM
IC90: 4.76 µM

COc1cccc(CN2CCN3C=C(C(=O)Nc4ccc(OCc5ccccc5)cc4)OC3=NC2=O)c1
IC50 (HEPG2TOX_HILL_SLOPE 3.22, HEPG2TOX_R_SQUARED 0.229, read-out: LUCIFERASE INFECTION ASSAY - IC50): > 10 µM
IC90: > 10 µM

CC(C)(C)c1ccc(-c2ccc(OCCCc3ccccn3)nc2)cc1
IC50 (HEPG2TOX_HILL_SLOPE 3.23, HEPG2TOX_R_SQUARED 0.98, PBLUC_HILL_SLOPE 2.82, PBLUC_R_SQUARED 0.72, read-out: LUCIFERASE INFECTION ASSAY - IC50): 6.22 µM
IC90: > 9.52 µM

CCS(=O)(=O)c1ncc(Cl)c(C(=O)Nc2ccc(C(=O)OC)cc2)n1
IC50 (HEPG2TOX_HILL_SLOPE 3.26, HEPG2TOX_R_SQUARED 0.643, PBLUC_HILL_SLOPE 9.13, PBLUC_R_SQUARED 0.474, read-out: LUCIFERASE INFECTION ASSAY - IC50): 3.67 µM
IC90: 4.66 µM

O=c1[nH]ncc(NCCCc2ccccc2)c1Cl
IC50 (HEPG2TOX_HILL_SLOPE 3.21, 1.90, HEPG2TOX_R_SQUARED 0.492, 0.980, PBLUC_HILL_SLOPE 2.78, PBLUC_R_SQUARED 0.0147, read-out: LUCIFERASE INFECTION ASSAY - IC50): 8.32 µM
IC90: > 10 µM

CCCn1c(NC(=O)C2CCN(S(=O)(=O)c3cccc(Cl)c3Cl)CC2)nc2ccccc21
IC50 (HEPG2TOX_HILL_SLOPE 3.25, HEPG2TOX_R_SQUARED 0.759, PBLUC_HILL_SLOPE 100, PBLUC_R_SQUARED 0.016, read-out: LUCIFERASE INFECTION ASSAY - IC50): 6.02 µM
IC90: 6.16 µM

O=C(NNC(=O)c1cc2cc(Cl)ccc2[nH]1)c1ccc(S(=O)(=O)N2CCCC2)cc1
IC50 (HEPG2TOX_HILL_SLOPE 3.29, HEPG2TOX_R_SQUARED 0.977, PBLUC_HILL_SLOPE 10.3, 16.0, PBLUC_R_SQUARED 0.127, 0.622, read-out: LUCIFERASE INFECTION ASSAY - IC50): 8.54 µM
IC90: 9.83 µM

CCOC(=O)C1=C(COC(=O)c2oc3ccc(OC)cc3c2C)NC(=O)NC1
IC50 (HEPG2TOX_HILL_SLOPE 3.23, HEPG2TOX_R_SQUARED 0.736, PBLUC_HILL_SLOPE 1.66, PBLUC_R_SQUARED 0.334, read-out: LUCIFERASE INFECTION ASSAY - IC50): > 10 µM
IC90: > 10 µM

C1=C(c2ccccc2)CCN(Cc2cccc3cccnc23)C1
IC50 (HEPG2TOX_HILL_SLOPE 3.29, HEPG2TOX_R_SQUARED 0.953, PBLUC_HILL_SLOPE 4.04, PBLUC_R_SQUARED 0.237, read-out: LUCIFERASE INFECTION ASSAY - IC50): 5.62 µM
IC90: 9.68 µM

Nc1ccc(-c2cnc3ccc(NCc4ccc(F)cc4)nn23)cc1
IC50 (HEPG2TOX_HILL_SLOPE 3.34, HEPG2TOX_R_SQUARED 0.665, PBLUC_HILL_SLOPE 6.16, PBLUC_R_SQUARED 0.867, read-out: LUCIFERASE INFECTION ASSAY - IC50): 0.26 µM
IC90: 0.372 µM

COc1ccc(OCCN2CCN(c3ccnc4cc(Cl)ccc34)CC2)cc1
IC50 (HEPG2TOX_HILL_SLOPE 3.33, HEPG2TOX_R_SQUARED 0.981, PBLUC_HILL_SLOPE 2.57, PBLUC_R_SQUARED 0.319, read-out: LUCIFERASE INFECTION ASSAY - IC50): 5.62 µM
IC90: > 10 µM

COc1c(Cl)cc(C(=O)Nc2nonc2-c2ccc(F)cc2)cc1Cl
IC50 (HEPG2TOX_HILL_SLOPE 3.32, HEPG2TOX_R_SQUARED 0.957, PBLUC_HILL_SLOPE 18.3, PBLUC_R_SQUARED 0.283, read-out: LUCIFERASE INFECTION ASSAY - IC50): 2.49 µM
IC90: 2.81 µM

Cc1noc(C)c1CSc1ccccc1C(=O)NNC(=O)c1ccc2ccccc2n1
IC50 (HEPG2TOX_HILL_SLOPE 3.33, HEPG2TOX_R_SQUARED 0.906, PBLUC_HILL_SLOPE 141, PBLUC_R_SQUARED 0.0106, read-out: LUCIFERASE INFECTION ASSAY - IC50): 6.66 µM
IC90: 6.77 µM

CN(C)CCNc1nc(-c2ccco2)c2c(c1C#N)CCCC2
IC50 (HEPG2TOX_HILL_SLOPE 3.21, HEPG2TOX_R_SQUARED 0.873, PBLUC_HILL_SLOPE 1.18, PBLUC_R_SQUARED 0.659, read-out: LUCIFERASE INFECTION ASSAY - IC50): 3.31 µM
IC90: > 10.6 µM

O=C(c1ccc(OCc2cccnc2)cc1)N1CCc2ccccc21
IC50 (HEPG2TOX_HILL_SLOPE 3.32, HEPG2TOX_R_SQUARED 0.856, read-out: LUCIFERASE INFECTION ASSAY - IC50): > 10 µM
IC90: > 10 µM

COc1ccc(-c2ccnc3n[nH]c(-c4ccncc4)c23)cc1
IC50 (HEPG2TOX_HILL_SLOPE 3.34, HEPG2TOX_R_SQUARED 0.878, PBLUC_HILL_SLOPE 1.93, PBLUC_R_SQUARED 0.439, read-out: LUCIFERASE INFECTION ASSAY - IC50): 3.22 µM
IC90: > 10 µM
